# Source: article PMC7559125 (Pathogens, 2020)
# pEC50, pIC50: −log10 of the molar value. Read-outs that look alike come from different tables or passages of the source.
# Experiments:
# [1] = tested on: A/Hiroshima/57/2014 (H275Y/I223R)
# [2] = tested on: A/Osaka/8/2014 (H275Y)
# [3] = tested on: A/Ibaraki/54/2016 (H275Y/I223K)
# [4] = tested on: A/Yokohama/94/2016 (H275Y)
# [5] = tested on: A/Hiroshima/13/2016 (H275Y/G147R)
# [6] = tested on: A/Aichi/83/2016 (H275Y)
# [7] = tested on: All viruses tested (dual H275Y, single H275Y, wild-type)
# [8] = tested on: A/Hiroshima/57/2014 (H275Y/I223R); remark: listed apart in the source
# [9] = tested on: A/Osaka/8/2014 (H275Y); remark: listed apart in the source
# [10] = tested on: A/Ibaraki/54/2016 (H275Y/I223K); remark: listed apart in the source
# [11] = tested on: A/Yokohama/94/2016 (H275Y); remark: listed apart in the source
# [12] = tested on: A/Hiroshima/13/2016 (H275Y/G147R); remark: listed apart in the source
# [13] = tested on: A/Aichi/83/2016 (H275Y); remark: listed apart in the source
# [14] = tested on: All viruses tested (dual H275Y, single H275Y, wild-type); remark: listed apart in the source
# [15] = target: neuraminidase of A/Hiroshima/13/2016 (H275Y/G147R) (Influenza A virus, UniProt A0A0X9QTS2, G147R/H275Y)
# [16] = tested on: neuraminidase of the dual H275Y mutant viruses
# [17] = target: neuraminidase of A/Hiroshima/57/2014 (H275Y/I223R) (Influenza A virus, UniProt W8DXJ8, H275Y/I223R)
# [18] = target: neuraminidase of A/Osaka/8/2014 (H275Y) (Influenza A virus, UniProt W8DXJ8, H275Y)
# [19] = target: neuraminidase of A/Ibaraki/54/2016 (H275Y/I223K) (Influenza A virus, UniProt A0A0X9QTS2, H275Y/I223K)
# [20] = target: neuraminidase of A/Yokohama/94/2016 (H275Y) (Influenza A virus, UniProt A0A0X9QTS2, H275Y)
# [21] = target: neuraminidase of A/Aichi/83/2016 (H275Y) (Influenza A virus, UniProt A0A0X9QTS2, H275Y)
smiles,measurement,setting,value
"O=C1c2c(O)c(=O)ccn2N([C@@H]2c3ccccc3SCc3c2ccc(F)c3F)[C@@H]2COCCN12 [Baloxavir, Baloxavir acid]",Fold-change in IC50 compared with the wild-type virus,[1],8.34 (2.1) fold
same,pIC50,[1],8.08
same,Fold-change in IC50 compared with the wild-type virus,[2],5.10 (1.3) fold
same,pIC50,[2],8.29
same,Fold-change in IC50 compared with the wild-type virus,[3],7.24 (1.2) fold
same,pIC50,[3],8.14
same,Fold-change in IC50 compared with the wild-type virus,[4],3.49 (0.6) fold
same,pIC50,[4],8.46
same,Fold-change in IC50 compared with the wild-type virus,[5],10.59 (1.0) fold
same,pIC50,[5],7.98
same,Fold-change in IC50 compared with the wild-type virus,[6],10.18 (0.9) fold
same,pIC50,[6],7.99
same,Susceptibility of all viruses tested (in words),[7],susceptible
"NC(=O)c1nc(F)c[nH]c1=O [Favipiravir, favipiravir]",pEC50,[8],5.10
same,Fold-change in EC50 compared with the wild-type virus,[8],7.99 (1.2) fold
same,pEC50,[9],5.32
same,Fold-change in EC50 compared with the wild-type virus,[9],4.76 (0.7) fold
same,pEC50,[10],4.99
same,Fold-change in EC50 compared with the wild-type virus,[10],10.20 (1.0) fold
same,pEC50,[11],4.67
same,Fold-change in EC50 compared with the wild-type virus,[11],21.40 (2.1) fold
same,pEC50,[12],4.82
same,Fold-change in EC50 compared with the wild-type virus,[12],15.13 (1.7) fold
same,pEC50,[13],4.83
same,Fold-change in EC50 compared with the wild-type virus,[13],14.83 (1.7) fold
same,Susceptibility of all viruses tested (in words),[14],susceptible
[H]/N=C(\N)N[C@H]1C=C(C(=O)O)O[C@@H]([C@H](OC)[C@H](O)CO)[C@@H]1NC(C)=O [Laninamivir],Susceptibility of the H275Y/G147R mutant virus (in words),[15],retained susceptibility
same,Susceptibility of the H275Y/I223R and H275Y/I223K mutant viruses (in words),[16],reduced susceptibility
"CCC(CC)[C@H](NC(C)=O)[C@@H]1[C@H](O)[C@@H](C(=O)O)C[C@H]1N=C(N)N.O.O.O [Peramivir, peramivir trihydrate]",Fold-change in IC50 compared with the wild-type virus,[17],"944.20 (94,000) fold"
same,pIC50,[17],6.02
same,Fold-change in IC50 compared with the wild-type virus,[18],"28.25 (2,800) fold"
same,pIC50,[18],7.55
same,Fold-change in IC50 compared with the wild-type virus,[19],"501.62 (7,200) fold"
same,pIC50,[19],6.30
same,Fold-change in IC50 compared with the wild-type virus,[20],20.88 (300) fold
same,pIC50,[20],7.68
same,Fold-change in IC50 compared with the wild-type virus,[15],"114.14 (1,400) fold"
same,pIC50,[15],6.94
same,Fold-change in IC50 compared with the wild-type virus,[21],31.93 (400) fold
same,pIC50,[21],7.50
same,"Susceptibility of the H275Y/I223R, H275Y/I223K and H275Y/G147R mutant viruses (in words)",[16],enhanced cross-resistance
"CC(=O)N[C@H]1[C@H]([C@H](O)[C@H](O)CO)OC(C(=O)O)=C[C@@H]1N=C(N)N [Zanamivir, zanamivir hydrate]","Susceptibility of the H275Y/I223R, H275Y/I223K and H275Y/G147R mutant viruses (in words)",[16],reduced susceptibility
